Experimental data from PubChem BioAssay AID2060333 (Molecular Pharmacology Branch, DTP, NCI, 2025).

Tested on: 845751-090-R-J2-PDC tumor spheroid viability
Assay: Anticancer human tumor 845751-090-R-J2-PDC patient-derived head and neck squamous carcinoma cell line growth inhibition [IpAb]
Details: spheroids with HUVEC and MSC; for IC50: curve of first compound; for viability, T/C: stronger effect = lower value
In short: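 Spheroids of 60% malignant cells, 25% HUVEC and 15% MSC were exposed to targeted agents combined with ipatasertib or abemaciclib. Doses started at or near clinical Cmax (10 microM when unknown) and fell in half-log steps.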
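Further: spheroids exposed to compounds for 7 days before readout.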
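Wherever viability, T/C is given: CTG3D luminescence normalised so that 100% = DMSO vehicle control.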

In the case of `C=CCn1c(=O)c2cnc(Nc3ccc(N4CCN(C)CC4)cc3)nc2n1-c1cccc(C(C)(C)O)n1` + CCN1CCN(Cc2ccc(Nc3ncc(F)c(-c4cc(F)c5nc(C)n(C(C)C)c5c4)n3)nc2)CC1, the IC50 (second compound 0.01 µM) is reported as > 10 µM, the IC50 (second compound 0.0316 µM) is reported as 4.17 µM and the IC50 (second compound 0.1 µM) is reported as 2 µM. For the same compound, the IC50 (second compound 0.316 µM) was 8.97 µM, the IC50 (second compound 1 µM) was > 10 µM and the viability, T/C (second compound 0.01 µM, first compound 0.0316 µM) was 104%. For the same compound, the viability, T/C (second compound 0.01 µM, first compound 0.1 µM) was 68.3%, the viability, T/C (second compound 0.01 µM, first compound 0.316 µM) was 68.3% and the viability, T/C (second compound 0.01 µM, first compound 1 µM) was 57.4%. It also gave a viability, T/C (second compound 0.01 µM, first compound 3.16 µM) of 50.8%, a viability, T/C (second compound 0.01 µM, first compound 10 µM) of 48.9% and a viability, T/C (second compound 0.0316 µM, first compound 0.0316 µM) of 66.4%. The viability, T/C (second compound 0.0316 µM, first compound 0.1 µM) was 71.4%, the viability, T/C (second compound 0.0316 µM, first compound 0.316 µM) was 62.2% and the viability, T/C (second compound 0.0316 µM, first compound 1 µM) was 60.8%. It also gave a viability, T/C (second compound 0.0316 µM, first compound 3.16 µM) of 53.1%, a viability, T/C (second compound 0.0316 µM, first compound 10 µM) of 40.8% and a viability, T/C (second compound 0.1 µM, first compound 0.0316 µM) of 66.8%. It also gave a viability, T/C (second compound 0.1 µM, first compound 0.1 µM) of 64.8%, a viability, T/C (second compound 0.1 µM, first compound 0.316 µM) of 60.8% and a viability, T/C (second compound 0.1 µM, first compound 1 µM) of 47.7%. The viability, T/C (second compound 0.1 µM, first compound 3.16 µM) was 50.5%, the viability, T/C (second compound 0.1 µM, first compound 10 µM) was 43.2% and the viability, T/C (second compound 0.316 µM, first compound 0.0316 µM) was 59%. For the same compound, the viability, T/C (second compound 0.316 µM, first compound 0.1 µM) was 68.7%, the viability, T/C (second compound 0.316 µM, first compound 0.316 µM) was 69.2% and the viability, T/C (second compound 0.316 µM, first compound 1 µM) was 60.3%. For the same compound, the viability, T/C (second compound 0.316 µM, first compound 3.16 µM) was 59.8%, the viability, T/C (second compound 0.316 µM, first compound 10 µM) was 49.1% and the viability, T/C (second compound 1 µM, first compound 0.0316 µM) was 88.9%. For the same compound, the viability, T/C (second compound 1 µM, first compound 0.1 µM) was 97.6%, the viability, T/C (second compound 1 µM, first compound 0.316 µM) was 83.9% and the viability, T/C (second compound 1 µM, first compound 1 µM) was 107%. For the same compound, the viability, T/C (second compound 1 µM, first compound 3.16 µM) was 95.7% and the viability, T/C (second compound 1 µM, first compound 10 µM) was 66.7%.
